Source: patent publication US20110218103A1, “Fluoroalkyl-substituted 2-amidobenzimidazoles” (BAYER CROPSCIENCE AG, priority 2010, published 2011)

Columns and labels:
Zea mays (ZEAMX) = experiment: Drought stress test on crop plants, spray application in greenhouse, visual damage rating; format: in vivo; details: 25 g/ha, mean of three results
Protocol: Seeds of monocotyledonous and dicotyledonous crop plants were placed in sandy loam in wood-fiber pots, covered with soil and cultivated in a greenhouse under good growth conditions. The test plants were treated at the early leaf stage (BBCH10-BBCH13). To ensure uniform water supply before commencement of stress, the potted plants were supplied with the maximum amount of water immediately beforehand by dam irrigation and, after application, transferred in plastic inserts in order to prevent subsequent, excessively rapid drying. The inventive compounds, formulated in the form of wettable powders (WP), wettable granules (WG), suspension concentrates (SC) or emulsion concentrates (EC), were sprayed onto the green parts of the plants as an aqueous suspension at an equivalent water application rate of 600 l/ha with addition of 0.2% wetting agent (agrotin). Substance application was followed immediately by stress treatment of the plants (cold or drought stress). For cold stress treatment, the plants were kept under the following controlled conditions: Drought stress was induced by gradual drying out under the following conditions: “day”: 14 hours with illumination at 26° C. “night”: 10 hours without illumination at 18° C. The duration of the respective stress phases was guided mainly by the state of the untreated, stressed control plants and thus varies from crop to crop. It was ended (by re-irrigating or transfer to a greenhouse with good growth conditions) as soon as irreversible damage is observed on the untreated, stressed control plants. In the case of dicotyledonous crops, for example oilseed rape and soya, the duration of the drought stress phase was between 3 and 5 days, in the case of monocotyledonous crops, for example wheat, barley or corn, between 6 and 10 days. The duration of the cold stress phase varied between 12 and 14 days. The end of the stress phase was followed by an approx. 5-7-day recovery phase, during which the plants were once again kept under good growth conditions in a greenhouse. In order to rule out any influence of the effects observed by any fungicidal action of the test compounds, it was additionally ensured that the tests proceed without fungal infection and without infection pressure. After the recovery phase had ended, the intensities of damage were rated visually compared to untreated, unstressed controls of the same age (in the case of drought stress) or the same growth stage (in the case of cold stress). The intensity of damage was first assessed as a percentage (100%=plants have died, 0%=like control plants). These values were then used to calculate the efficacy of the test compounds (=percentage reduction in the intensity of damage as a result of substance application) by the following formula: [formula] EF: efficacy (%) DVus: damage value of the untreated, stressed control DVts: damage value of the plants treated with test compound The tables below list mean values in each case from three results of the same test. Effects of selected compounds of the formula (I) under drought stress: ZEAMX=Zea mays

[1] = system: Triticum aestivum (TRZAS); experiment: as above; format: in vivo; details: mean of three results
Protocol: Seeds of monocotyledonous and dicotyledonous crop plants were placed in sandy loam in wood-fiber pots, covered with soil and cultivated in a greenhouse under good growth conditions. The test plants were treated at the early leaf stage (BBCH10-BBCH13). To ensure uniform water supply before commencement of stress, the potted plants were supplied with the maximum amount of water immediately beforehand by dam irrigation and, after application, transferred in plastic inserts in order to prevent subsequent, excessively rapid drying. The inventive compounds, formulated in the form of wettable powders (WP), wettable granules (WG), suspension concentrates (SC) or emulsion concentrates (EC), were sprayed onto the green parts of the plants as an aqueous suspension at an equivalent water application rate of 600 l/ha with addition of 0.2% wetting agent (agrotin). Substance application was followed immediately by stress treatment of the plants (cold or drought stress). For cold stress treatment, the plants were kept under the following controlled conditions: Drought stress was induced by gradual drying out under the following conditions: “day”: 14 hours with illumination at 26° C. “night”: 10 hours without illumination at 18° C. The duration of the respective stress phases was guided mainly by the state of the untreated, stressed control plants and thus varies from crop to crop. It was ended (by re-irrigating or transfer to a greenhouse with good growth conditions) as soon as irreversible damage is observed on the untreated, stressed control plants. In the case of dicotyledonous crops, for example oilseed rape and soya, the duration of the drought stress phase was between 3 and 5 days, in the case of monocotyledonous crops, for example wheat, barley or corn, between 6 and 10 days. The duration of the cold stress phase varied between 12 and 14 days. The end of the stress phase was followed by an approx. 5-7-day recovery phase, during which the plants were once again kept under good growth conditions in a greenhouse. In order to rule out any influence of the effects observed by any fungicidal action of the test compounds, it was additionally ensured that the tests proceed without fungal infection and without infection pressure. After the recovery phase had ended, the intensities of damage were rated visually compared to untreated, unstressed controls of the same age (in the case of drought stress) or the same growth stage (in the case of cold stress). The intensity of damage was first assessed as a percentage (100%=plants have died, 0%=like control plants). These values were then used to calculate the efficacy of the test compounds (=percentage reduction in the intensity of damage as a result of substance application) by the following formula: [formula] EF: efficacy (%) DVus: damage value of the untreated, stressed control DVts: damage value of the plants treated with test compound The tables below list mean values in each case from three results of the same test. Effects of selected compounds of the formula (I) under drought stress: TRZAS=Triticum aestivum

| Structure (SMILES) | EF (ZEAMX), efficacy = percentage reduction in the intensity of damage (Zea mays (ZEAMX)) | EF (TRZAS), efficacy = percentage reduction in the intensity of damage ([1]; 250 g/ha) | EF (TRZAS), efficacy = percentage reduction in the intensity of damage ([1]; 25 g/ha) |
| --- | --- | --- | --- |
| NC(=O)c1cccc2[nH]c(C(F)(F)C(F)(F)C(F)(F)F)nc12 [1-17] | >5% | >5% | – |
| NC(=O)c1cccc2[nH]c(C(F)(F)C(F)(F)F)nc12 [1-2, 2-(pentafluoroethyl)-1H-benzimidazole-4-carboxamide] | >5% | – | >5% |
